Reference: ChEMBL document CHEMBL4229478, “Synthesis, Characterization, and Biological Evaluation of a Porphyrin-Based Photosensitizer and Its Isomer for Effective Photodynamic Therapy against Breast Cancer” (J Med Chem, 2018)
The source made the active and inactive calls. No cut-off for these calls is given here.

Experiments:
MDA-MB-231 [1] = assay: Induction of apoptosis in human MDA-MB-231 cells assessed as viable cells after 24 hrs upon light irradiation by Annexin-V FITC/propidium iodide staining based flow cytometric analysis (reference value: 93.27%); format: functional
Mus musculus [2] = assay: Hepatotoxicity in BALB/c mouse xenografted with mouse 4T1 cells assessed as pathological changes in liver at 4 mg/kg, iv measured at day 22 post dose by hematoxylin and eosin staining based light microscopic analysis; format: toxicity, organism-based; conditions: in vivo
[3] = Drug uptake in endoplasmic reticulum of human MDA-MB-231 cells at 10 uM after 4 hrs by ER tracker green-based confocal laser scanning microscopic analysis; format: ADME, subcellular; conditions: mda-mb-231, 4 h
4T1 [4] = assay: Phototoxicity against mouse 4T1 cells assessed as cell viability at 0.5 uM preincubated for 4 hrs followed by 1 J/cm2 light irradiation and measured after 24 hrs by MTT assay relative to control; format: functional; conditions: 4T1, light or radiation study, read-out: Activity
Mus musculus [5] = assay: Toxicity in BALB/c mouse xenografted with mouse 4T1 cells assessed as pathological changes in lung at 1 to 4 mg/kg, iv pre-tretaed for 24 hrs followed by 50 J/cm2 light irradiation and measured at day 22 post dose by hematoxylin and eosin staining based light microscopic analysis; format: organism-based; conditions: in vivo
[6] = Drug uptake in tumor of BALB/c mouse xenografted with mouse 4T1 cells at 10 mg/kg, iv measured at 12 hrs post injection by IVIS spectrum imaging; format: ADME, organism-based, Neoplasm; conditions: in vivo
HUVEC = assay: Phototoxicity against HUVEC assessed as cell viability at 0.5 uM preincubated for 4 hrs followed by 0.5 to 2 J/cm2 light irradiation and measured after 24 hrs by MTT assay; format: cell-based; conditions: human
Mus musculus [7] = assay: Hepatotoxicity in BALB/c mouse xenografted with mouse 4T1 cells assessed as pathological changes in liver at 4 mg/kg, iv pre-tretaed for 24 hrs followed by 50 J/cm2 light irradiation and measured at day 22 post dose by hematoxylin and eosin staining based light microscopic analysis; format: toxicity, organism-based; conditions: in vivo
[8] = Dark toxicity against human MDA-MB-231 cells assessed as cell viability at 0.5 uM after 24 hrs by MTT assay; format: cell-based; conditions: mda-mb-231, 24 h
MDA-MB-231 [9] = assay: Induction of apoptosis in human MDA-MB-231 cells assessed as necrotic cells after 24 hrs upon light irradiation by Annexin-V FITC/propidium iodide staining based flow cytometric analysis (reference value: 4.24%); format: functional
[10] = Drug uptake in human MDA-MB-231 cells at 5 uM after 4 hrs by fluorescence microscopic analysis; format: ADME, cell-based; conditions: mda-mb-231, 4 h
Mus musculus [11] = assay: Toxicity in BALB/c mouse xenografted with mouse 4T1 cells assessed as effect on body weight at 2 mg/kg, iv pre-tretaed for 24 hrs followed by 50 J/cm2 light irradiation and measured at day 22 post dose; format: organism-based; conditions: in vivo
MDA-MB-231 [12] = assay: Phototoxicity against human MDA-MB-231 cells assessed as cell viability at 0.5 uM preincubated for 4 hrs followed by 0.5 to 2 J/cm2 light irradiation and measured after 24 hrs by MTT assay; format: functional, cell-based
[13] = Drug uptake in spleen of BALB/c mouse xenografted with mouse 4T1 cells at 10 mg/kg, iv measured at 12 hrs post injection by IVIS spectrum imaging; format: ADME, organism-based; conditions: in vivo
Mus musculus [14] = assay: Toxicity in BALB/c mouse xenografted with mouse 4T1 cells assessed as pathological changes in spleen at 1 to 4 mg/kg, iv pre-tretaed for 24 hrs followed by 50 J/cm2 light irradiation and measured at day 22 post dose by hematoxylin and eosin staining based light microscopic analysis; format: organism-based; conditions: in vivo
4T1 [15] = assay: Antitumor activity against mouse 4T1 cells xenografted in BALB/c mouse assessed as inhibition of tumor weight at 1 to 4 mg/kg, iv pretreated for 24 hrs followed by 50 J/cm2 light irradiation and measured at day 22 post last dose; format: functional, organism-based
[16] = Drug uptake in heart of BALB/c mouse xenografted with mouse 4T1 cells at 10 mg/kg, iv measured at 12 hrs post injection by IVIS spectrum imaging; format: ADME, organism-based; conditions: in vivo
MDA-MB-231 [17] = assay: Induction of apoptosis in human MDA-MB-231 cells assessed as necrotic cells after 24 hrs by Annexin-V FITC/propidium iodide staining based flow cytometric analysis (reference value: 4.24%); format: cell-based; conditions: mda-mb-231, 24 h
[18] = Drug uptake in mitochondria of human MDA-MB-231 cells at 10 uM after 4 hrs by Mito tracker green-based confocal laser scanning microscopic analysis; format: ADME; conditions: mda-mb-231, 4 h
[19] = Induction of apoptosis in human MDA-MB-231 cells assessed as viable cells after 24 hrs by Annexin-V FITC/propidium iodide staining based flow cytometric analysis (reference value: 93.27%); format: cell-based; conditions: read-out: Activity
Mus musculus [20] = assay: Nephrotoxicity in BALB/c mouse xenografted with mouse 4T1 cells assessed as pathological changes in kidney at 1 to 4 mg/kg, iv pre-tretaed for 24 hrs followed by 50 J/cm2 light irradiation and measured at day 22 post dose by hematoxylin and eosin staining based light microscopic analysis; format: toxicity, organism-based; conditions: in vivo
4T1 [21] = assay: Phototoxicity against mouse 4T1 cells assessed as cell viability at 0.5 uM preincubated for 4 hrs followed by 0.5 J/cm2 light irradiation and measured after 24 hrs by MTT assay relative to control; format: functional; conditions: 4T1, light or radiation study, read-out: Activity
Mus musculus [22] = assay: Hepatotoxicity in BALB/c mouse xenografted with mouse 4T1 cells assessed as pathological changes in liver at 1 to 4 mg/kg, iv pre-tretaed for 24 hrs followed by 50 J/cm2 light irradiation and measured at day 22 post dose by hematoxylin and eosin staining based light microscopic analysis; format: toxicity, organism-based; conditions: in vivo
4T1 [23] = assay: Induction of apoptosis in mouse 4T1 cells xenografted in BALB/c mouse at 4 mg/kg, iv pretreated for 24 hrs followed by 50 J/cm2 light irradiation by TUNEL assay; format: functional, organism-based
MDA-MB-231 [24] = assay: Phototoxicity against human MDA-MB-231 cells assessed as cell viability incubated with ROS scavenger NAC 1 hr before 2 J/cm2 light irradiation by MTT assay relative to control; format: functional
Mus musculus [25] = assay: Toxicity in BALB/c mouse xenografted with mouse 4T1 cells assessed as effect on body weight at 4 mg/kg, iv measured at day 22 post last dose; format: organism-based; conditions: in vivo
[26] = Drug uptake in human MDA-MB-231 cells at 5 uM by flow cytometric analysis; format: ADME, cell-based; conditions: mda-mb-231, 5 µM, TDE = time-dependent effect
Mus musculus [27] = assay: Nephrotoxicity in BALB/c mouse xenografted with mouse 4T1 cells assessed as pathological changes in kidney at 4 mg/kg, iv measured at day 22 post dose by hematoxylin and eosin staining based light microscopic analysis; format: toxicity, organism-based; conditions: in vivo
4T1 [28] = assay: Antitumor activity against mouse 4T1 cells xenografted in BALB/c mouse assessed as inhibition of tumor volume at 4 mg/kg, iv pretreated for 24 hrs followed by 50 J/cm2 light irradiation and measured at day 22 post dose relative to control; format: functional; conditions: 4T1, light or radiation study
4T1 [29] = assay: Antitumor activity against mouse 4T1 cells xenografted in BALB/c mouse assessed as induction of tissue destruction with large spaces at 4 mg/kg, iv pretreated for 24 hrs followed by 50 J/cm2 light irradiation by hematoxylin and eosin staining based light microscopic analysis; format: functional, organism-based
[30] = Drug uptake in tumor of BALB/c mouse xenografted with mouse 4T1 cells at 10 mg/kg, iv measured up to 3 to 24 hrs post injection by fluorescence assay; format: ADME, organism-based, Neoplasm; conditions: in vivo
[31] = Drug uptake in lung of BALB/c mouse xenografted with mouse 4T1 cells at 10 mg/kg, iv measured at 12 hrs post injection by IVIS spectrum imaging; format: ADME, organism-based; conditions: in vivo

Row | Drug uptake [3] | Drug uptake [6] | Drug uptake [10] | Drug uptake [13] | Drug uptake [16] | Drug uptake [18] | Structure (SMILES) | Activity (MDA-MB-231 [1]) | Activity (Mus musculus [2]) | viability at 0.5 µM (4T1 [4]) | Activity (Mus musculus [5]) | Activity (HUVEC) | Activity (Mus musculus [7]) | Activity [8] | Activity (MDA-MB-231 [9]) | Activity (Mus musculus [11]) | Activity (MDA-MB-231 [12]) | Activity (Mus musculus [14]) | inhibition (4T1 [15]) | Activity (MDA-MB-231 [17]) | viability at 24 h [19] | further results
1 | Active | Active | Active | Not Active | Not Active | Active | C=CC1=C(C)c2cc3[nH]c(cc4nc(cc5[nH]c(cc1n2)c(C)c5CCC(=O)[O-])C(CCC(=O)[O-])=C4C)c(C)c3C(C)OCCCCCC.[Na+].[Na+] (centres undefined) | 41.63% | Non-Toxic | 76.1% | Non-Toxic | Non-Toxic | Non-Toxic | Non-Toxic | 11.12% | Non-Toxic | Active | Non-Toxic | Active | 0.4% | 92.8% | Activity (Mus musculus [20]): Non-Toxic; viability at 0.5 µM (4T1 [21]): 98%; Activity (Mus musculus [22]): Non-Toxic; Activity (4T1 [23]): Active; Activity (MDA-MB-231 [24]): >80%; Activity (Mus musculus [25]): Non-Toxic; Drug uptake [26]: Tde; Activity (Mus musculus [27]): Non-Toxic; inhibition in vivo at 4 mg/kg (4T1 [28]): 45.4%; Activity (4T1 [29]): Active; Drug uptake [30]: Active; Drug uptake [31]: Not Active
2 | Active | Active | Active | Not Active | Not Active | Active | C=Cc1c(C)c2cc3nc(cc4[nH]c(cc5nc(cc1[nH]2)C(C)=C5C(C)OCCCCCC)c(C)c4CCC(=O)[O-])C(CCC(=O)[O-])=C3C.[Na+].[Na+] (centres undefined) | 32.52% | Non-Toxic | 61.7% | Non-Toxic | Non-Toxic | Non-Toxic | Non-Toxic | 10.12% | Non-Toxic | Active | Non-Toxic | Active | 0.58% | 93.4% | Activity (Mus musculus [20]): Non-Toxic; viability at 0.5 µM (4T1 [21]): 86.4%; Activity (Mus musculus [22]): Non-Toxic; Activity (4T1 [23]): Active; Activity (MDA-MB-231 [24]): >80%; Activity (Mus musculus [25]): Non-Toxic; Drug uptake [26]: Tde; Activity (Mus musculus [27]): Non-Toxic; inhibition in vivo at 4 mg/kg (4T1 [28]): 65.4%; Activity (4T1 [29]): Active; Drug uptake [30]: Active; Drug uptake [31]: Not Active
